Results published in publication PMC5004175, “Abcb1 in Pigs: Molecular cloning, tissues distribution, functional analysis, and its effect on pharmacokinetics of enrofloxacin” (Scientific Reports, 2016).
Read-outs that look alike come from different tables or passages of the source. Blank lines part the entries; values can stand above or below the molecule they belong to.

How the values were obtained:
[1] = Tolerability of P-gp inhibitor pre-treatment in piglets; format: in vivo; conditions: piglets treated with the P-gp inhibitor; dose not given
[2] = Bidirectional transport assay of enrofloxacin in MDCK parental cell monolayers; format: in vitro ADME, canine; conditions: dog, MDCK cells, enrofloxacin 12 μM alone
Description: (§1) Transport assays were carried out as described[45] with minor modifications. MDCK and MDCK-pAbcb1 with a density of 6.6 × 10^4 cells/insert were seeded on a polyethylene terephthalate membrane insert (Millicell cell culture inserts, 1.0 μm pore size, 6.5 mm diameter) in 24-well culture plates. […] Samples were stored at −20 °C. All experiments were conducted in triplicate.
(§2) In brief, plasma was thawed at room temperature and centrifuged at 2,000 × g for 5 min. […] The organic phase was evaporated to dryness under a nitrogen stream and residue was resuspended with mobile phase solution. The samples from the transport assays were directly evaporated to dryness under a nitrogen stream and 40 μL of the mobile phase solution was used to concentrate the samples for 5 times. Twenty microliters of the mixture were injected into the HPLC column (Kromasil C18 columns, […] particle size, 250 × 4.6 mm). The mobile phase composition was 0.1 M phosphoric acid (adjusted pH to 3.5 with triethylamine)/acetonitrile (84:16, v/v) and the flow rate of mobile phase was set to 0.85 mL/min. UV absorbance was measured at 278 nm.
(§3) Apparent permeability coefficients (Papp) were calculated using the following equation: Papp = (dQ/dt)/(A × C0), where A is the area of filter membrane, C0 is the initial concentration of the test drug, dQ is the amount of transported drug, and dt is time elapsed. The efflux ratio (ER) was calculated from (Papp B → A)/(Papp A → B)[59]. Where Papp B → A and Papp A → B are BL to AP and AP to BL apparent permeability coefficients, respectively. The net efflux ratio was calculated using the following equation: Net efflux ratio = efflux ratio in MDCK-pAbcb1/efflux ratio in MDCK.

porcine P-gp [3] = assay: Bidirectional transport assay of enrofloxacin in MDCK-pAbcb1 cell monolayers; format: in vitro ADME, pig
Description: as §1, §2, §3

in vivo = conditions: pig, plasma, po, 10 mg/kg
[4] = Pharmacokinetics of oral enrofloxacin in healthy pigs with/without verapamil; conditions: enrofloxacin 10 mg/kg po alone, mean ± SEM, n = 4
P-gp = P-gp inhibition (data not shown)
porcine P-gp [5] = conditions: 5 μM Rho123, during 2 h, p < 0.01

SMILES: C/C=C/C[C@@H](C)C(=O)[C@H]1C(=O)N[C@@H](C(C)C)C(=O)N(C)CC(=O)N(C)[C@@H](CC(C)C)C(=O)N[C@@H](C(C)C)C(=O)N(C)[C@@H](CC(C)C)C(=O)N[C@@H](C)C(=O)N[C@H](C)C(=O)N(C)[C@@H](CC(C)C)C(=O)N(C)[C@@H](CC(C)C)C(=O)N(C)[C@@H](C(C)C)C(=O)N1C [PSC-833]
Adverse effect in treated piglets [1]: some animals began vomiting

Papp A→B at 120 min, 12 μM ([2]; 120 min, mean ± SEM, n = 3): 124 ± 5.9 nm/s
Papp B→A at 120 min, 12 μM ([2]; 120 min, mean ± SEM, n = 3): 129 ± 16.5 nm/s
efflux ratio at 120 min, 12 μM ([2]; Papp B→A / Papp A→B): 1.04 ± 0.11
Net efflux ratio (porcine P-gp [3]; enrofloxacin 12 μM alone, efflux ratio in MDCK-pAbcb1 / efflux ratio in MDCK): 2.48
Papp B→A at 120 min, 12 μM (porcine P-gp [3]; pig, MDCK-MDR1, MDCK-pAbcb1 cells, enrofloxacin 12 μM alone, 120 min, mean ± SEM, n = 3): 199 ± 15.7 nm/s
efflux ratio at 120 min, 12 μM (porcine P-gp [3]; pig, MDCK-pAbcb1, MDCK-pAbcb1 cells, enrofloxacin 12 μM alone, Papp B→A / Papp A→B, read-out: Efflux ratio): 2.58 ± 0.25
efflux ratio at 120 min, 12 μM (porcine P-gp [3]; pig, MDCK-pAbcb1, enrofloxacin 12 μM alone, efflux ratio in MDCK-pAbcb1 / efflux ratio in MDCK, read-out: Net efflux ratio): > 2
Papp A→B at 120 min, 12 μM (porcine P-gp [3]; pig, MDCK-pAbcb1 cells, enrofloxacin 12 μM alone, 120 min, mean ± SEM, n = 3): 77.8 ± 12.8 nm/s
Cmax (in vivo): 3.39 ± 0.12 µg/mL
Tmax (in vivo): 2.01 ± 0.09 h
k el (in vivo): 7.78e-05 s⁻¹
AUC (area under the plasma concentration-time curve) [4]: 13.57 ± 0.96 (μg/mL)·h
CL/F (Clearance/F) ([4]; plasma): 0.47 ± 0.01 (mg/kg/h)/(μg/mL)
Ka (absorption rate constant) ([4]; plasma): 0.82 ± 0.11 h⁻¹
T1/2ka (absorption half-life) ([4]; plasma): 0.88 ± 0.20 h
T1/2ke (elimination half-life) ([4]; plasma): 2.50 ± 0.23 h
V/F (volume of distribution/F) ([4]; plasma): 1.69 ± 0.18 (mg/kg)/(μg/mL)
SMILES: CCN1CCN(c2cc3c(cc2F)c(=O)c(C(=O)O)cn3C2CC2)CC1 [ENRO, enrofloxacin]

SMILES: COc1ccc2cc3[n+](cc2c1OC)CCc1cc2c(cc1-3)OCO2 [Berberine]
Inhibition of P-gp (P-gp): can significantly inhibit P-gp

SMILES: COC(=O)c1ccccc1-c1c2ccc(=N)cc-2oc2cc(N)ccc12 [Rho123, rhodamine 123]
Accumulation of Rho123 in MDCK-pAbcb1 cells compared with MDCK cells (porcine P-gp [5]): accumulated less Rho123 than MDCK cells
